Measurements: US20090172831A1, “Methods for the production of plants resistant to HPPD herbicides” (Syngenta Limited, priority 2000, published 2009)

What was measured:
[1] = test system: tobacco plants transformed with Avena sativa 4-HPPD gene; experiment: Tolerance of tobacco transformed with Avena sativa HPPD to herbicides; settings: in vivo
Excerpt: The structure of the resulting vector is shown schematically in FIG. 4.
The 4-HPPD plant expression cassette is then ligated in to the binary vector pBin19 restricted with Hind III and EcoRI and transformed into E. coli TOP10 cells (Invitrogen). This binary vector is then transformed into tobacco using methods well known in the art and, for example, as described elsewhere herein.

[2] = test system: tobacco plants transformed to express wheat HPPD; experiment: Glasshouse spray test, visible damage; type: in vivo
Experimental: (§1) Plants are 1) untransformed tobacco plants variety Samsun expressing the endogenous tobacco (control) HPPD gene, 2) tobacco plants transformed to express Pseudomonas HPPD according to the examples herein and 3) tobacco plants transformed to express Wheat HPPD also according to the examples herein.
(§2) Large numbers of plants are grown from seed in small pots in the glasshouse to the 5-7 leaf seedling stage and sprayed with a range of doses, suitably from 0.0 to 2000 g/ha, of different HPPD-inhibitor herbicides selected from compounds of Formula 1, 2, 3 and 4. Treatments are suitably Formulated in, for example, deionised water+0.5% Turbocharge™ surfactant or, alternatively, 50% acetone/water and applied at […] to a dozen or more replicates of each line and at each spray rate (where the plants were T1 plants (selfed progeny of primary transformants) and still segregating at normally 1:2:1) or, where, homozygous, 3-6 plants. The extent of visible damage in terms of bleaching of meristems and leaves, eventual necrosis and stunting of growth relative to unsprayed controls is assessed at ˜1 and 3 weeks after treatment. Data from susceptible segregants are excluded from the analysis. In summary, results obtained are as follows.

[3] = test system: untransformed tobacco plants variety Samsun; experiment: Glasshouse spray test, visible damage; type: in vivo; settings: spray 0.0 to 2000 g/ha, assessed ~1 and 3 weeks after treatment
Experimental: as §1, §2

[4] = test system: tobacco plants transformed to express wheat HPPD; experiment: Tolerance of tobacco transformed with wheat HPPD to herbicides; type: in vivo; settings: in vivo
Excerpt: These constructs were all transformed into Agrobacterium tumefaciens strain LBA4404, which in turn was used to transform tobacco, using methodology described previously.
Explants (i.e. a leaf plus short segment of stem containing the auxiliary bud) are placed into MS agar (+3% sucrose) containing various concentrations of mesotrione (see above) from 0.02 to 2 ppm.

[5] = molecular target: P. fluorescens HPPD (Pseudomonas fluorescens, UniProt A0ACG8AE61); experiment: Dissociation of enzyme/inhibitor complexes by exchange with 14C-labelled inhibitor (koff; Kd = koff/kon); type: binding
Chain of P. fluorescens HPPD (A0ACG8AE61 entry or part of it): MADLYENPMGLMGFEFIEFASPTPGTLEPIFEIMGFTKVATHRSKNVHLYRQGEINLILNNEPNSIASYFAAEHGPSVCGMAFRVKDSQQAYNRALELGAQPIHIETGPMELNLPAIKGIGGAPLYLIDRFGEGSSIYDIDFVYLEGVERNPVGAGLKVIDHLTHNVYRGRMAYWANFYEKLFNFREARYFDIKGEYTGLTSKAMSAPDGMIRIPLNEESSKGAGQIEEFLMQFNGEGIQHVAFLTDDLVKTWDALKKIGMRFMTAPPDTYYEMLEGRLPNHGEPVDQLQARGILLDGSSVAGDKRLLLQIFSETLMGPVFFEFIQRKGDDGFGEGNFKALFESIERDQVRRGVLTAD
Excerpt: (§3) Herbicidal inhibitors of HPPD are found here to have generally low values of koff (in the range less than 0.0003 s^−1, often less than 0.000001 s^−1). It will be appreciated that many suitable methods known in the art for determining such low koff values are suitable for working the current invention. These include measuring rates of exchange of radio or otherwise labelled inhibitors either with or away from the enzyme inhibitor complex. For example enzyme inhibitor complexes can readily be prepared by incubating HPPD preparations with labelled or unlabelled inhibitor and then, after suitable periods, optionally rapidly separating the thus formed enzyme inhibitor complex from excess inhibitor by any suitable method such as ultrafiltration, binding to filters or exchange down a gel filtration column. Exchange reactions with the, thus prepared enzyme inhibitor complex is then initiated by addition of, as appropriate, excess labelled or unlabelled inhibitor. HPPD preparations suitable for use in the methods of the current invention are relatively unpurified, buffer-exchanged, supernatant fractions of spun crude lysates of E. coli strains engineered to express the HPPD enzyme of interest at a level of, typically, about 0.25-10% of the total soluble protein. Many methods such as radiometric, fluorimetric, NMR, fluorescence depolarisation, EPR, Mossbauer, UV/VIS spectrophotometry etc. or phonon resonance can, in principle, be used to monitor the enzyme/ligand exchange reactions and, particularly in this case where the enzyme contains an iron atom at the ligand binding site. Optionally, the monitoring method may be continuous (as, for example, with scintillation proximity/bead-based methods) or, discontinuous, based upon collection of data at various timepoints wherein samples are removed and the bound and unbound label components rapidly separated and quantitated.
Values of koff can suitably be calculated by computer fitting based upon is numerical integration of the exchange data along with information on the active-site concentration of HPPD and upon kon values obtained as described below. […] In any event, koff values are always here calculated from the rate of the major slow exchange reaction. It will be appreciated that within the scope of the current invention many methods of making the desired kinetic comparisons are possible without explicit or rigorous determination of off rates but, based upon the same underlying principle, will achieve the same selection result. […]
Not all test inhibitors are readily available in a radiolabelled form. A more general method of measuring off rates is to first form the complex with unlabelled test inhibitor, to rapidly exchange the complex free of excess unlabelled inhibitor and to then start the exchange reaction by addition of an excess of a standard labelled inhibitor, the kinetic properties of which are already known. The reaction is then monitored and the relative proportions of bound and unbound label determined at various times. […] The latter is the method of choice when the rate of exchange is fast (t½<3 h).
In, variants of the above methods, off rates are measured either in the presence or absence of ˜25% v/v glycerol. In the presence of glycerol values obtained are generally ˜1.5-3× slower than in its absence although sometimes the change is outside this range or, even, in the other direction. Further examples of data obtained are depicted in the following Table 3.
Crude Extracts of recombinant E. coli strains expressing, in the one case, a control HPPD (from Arabidopsis) and, in the other, one or more test HPPD sequences are prepared as described in the preceding example. The titre of active sites and enzyme activity are also defined and measured as described in the preceding examples. […]

[6] = molecular target: Avena HPPD (Avena sativa, UniProt A0ACD5V6K6); experiment: In vitro measurements of Avena HPPD (dissociation rate constants, Ki); type: binding; settings: read-out: rate constants governing dissociation of the complexes
Chain of Avena HPPD (A0ACD5V6K6 entry or part of it): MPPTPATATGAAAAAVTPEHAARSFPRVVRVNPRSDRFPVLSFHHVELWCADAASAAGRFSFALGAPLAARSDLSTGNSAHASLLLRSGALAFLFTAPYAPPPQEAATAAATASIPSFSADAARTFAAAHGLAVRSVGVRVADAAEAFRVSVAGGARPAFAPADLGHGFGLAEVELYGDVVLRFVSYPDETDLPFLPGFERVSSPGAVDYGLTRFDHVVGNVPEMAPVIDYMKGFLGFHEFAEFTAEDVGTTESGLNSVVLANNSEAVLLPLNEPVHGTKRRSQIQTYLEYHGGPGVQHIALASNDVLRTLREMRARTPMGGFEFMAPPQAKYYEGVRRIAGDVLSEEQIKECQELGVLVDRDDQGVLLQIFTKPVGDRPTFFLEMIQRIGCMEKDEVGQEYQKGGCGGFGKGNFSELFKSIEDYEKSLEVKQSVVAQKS

[7] = molecular target: Wheat HPPD (Triticum aestivum, UniProt A0A3B6NLC6); experiment: Dissociation of enzyme/inhibitor complexes by exchange with 14C-labelled inhibitor (koff; Kd = koff/kon); type: binding
Chain of Wheat HPPD (A0A3B6NLC6 entry or part of it): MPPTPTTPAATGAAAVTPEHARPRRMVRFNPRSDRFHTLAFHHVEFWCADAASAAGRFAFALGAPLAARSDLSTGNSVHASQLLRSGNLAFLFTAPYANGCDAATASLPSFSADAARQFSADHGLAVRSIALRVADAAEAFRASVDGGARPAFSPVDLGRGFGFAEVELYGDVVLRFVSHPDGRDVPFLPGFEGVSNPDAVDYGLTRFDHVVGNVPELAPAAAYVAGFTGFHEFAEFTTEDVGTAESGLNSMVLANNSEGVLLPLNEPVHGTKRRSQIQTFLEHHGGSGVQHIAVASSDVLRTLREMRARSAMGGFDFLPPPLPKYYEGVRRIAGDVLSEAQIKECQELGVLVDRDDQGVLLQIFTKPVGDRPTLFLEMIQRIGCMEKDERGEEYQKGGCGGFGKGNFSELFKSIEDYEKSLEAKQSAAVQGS
Excerpt: as §3
Values of koff can suitably be calculated by computer fitting based upon is numerical integration of the exchange data along with information on the active-site concentration of HPPD and upon kon values obtained as described below. […] In any event, koff values are always here calculated from the rate of the major slow exchange reaction. It will be appreciated that within the scope of the current invention many methods of making the desired kinetic comparisons are possible without explicit or rigorous determination of off rates but, based upon the same underlying principle, will achieve the same selection result.
The dissociation rates (off rates) of inhibitors selected from Formula 1 and/or 2 and/or 3 and/or 4 from the complexes that they form with test and control HPPD enzymes are suitably measured in a number of ways. Thus, for example, the rates of dissociation of mesotrione, a compound selected from Formula 1 and of the diketonitrile of isoxaflutole, a compound selected from Formula 3 from their respective complexes with, test, wheat HPPD and with, control, Arabidopsis HPPD are compared. The method and results from a typical test are as follows.
^14C mesotrione is of specific activity 1.12 GBq/mmol. This is ˜95% pure radiochemically by TLC and based upon the proportion of material tight-binding to HPPD. Arabidopsis and, (test), wheat HPPD are each diluted to a concentration of ˜0.45 and 0.54 μM, respectively into 1.6 ml of 50 mM Bis-Tris propane buffer at pH 7.0 containing 25% glycerol, 25 mM sodium ascorbate and 3 mg/l of bovine catalase (Sigma C3155˜50,000 units/mg) containing […] ^14C mesotrione and left to react at 25 C for 2.5-3 h. Following this initial binding reaction, exchange reactions are initiated by addition of cold mesotrione to a final concentration of 60 μM and 200 μl aliquots removed at various times to rapid chromatography down a NAP5 gel filtration column equilibrated in 50 mM BTP at pH 7 containing 0.1 M KCl, separation into fractions containing protein-bound or free radiolabel and liquid scintillation counting. […]

[8] = molecular target: T1, Arabidopsis HPPD (Arabidopsis thaliana, UniProt P93836); experiment: as above; type: binding
T1 construct: made in house; host or cells: E. coli BL21 (DE3) codon+ RP
T1 sequence (P93836 1-445): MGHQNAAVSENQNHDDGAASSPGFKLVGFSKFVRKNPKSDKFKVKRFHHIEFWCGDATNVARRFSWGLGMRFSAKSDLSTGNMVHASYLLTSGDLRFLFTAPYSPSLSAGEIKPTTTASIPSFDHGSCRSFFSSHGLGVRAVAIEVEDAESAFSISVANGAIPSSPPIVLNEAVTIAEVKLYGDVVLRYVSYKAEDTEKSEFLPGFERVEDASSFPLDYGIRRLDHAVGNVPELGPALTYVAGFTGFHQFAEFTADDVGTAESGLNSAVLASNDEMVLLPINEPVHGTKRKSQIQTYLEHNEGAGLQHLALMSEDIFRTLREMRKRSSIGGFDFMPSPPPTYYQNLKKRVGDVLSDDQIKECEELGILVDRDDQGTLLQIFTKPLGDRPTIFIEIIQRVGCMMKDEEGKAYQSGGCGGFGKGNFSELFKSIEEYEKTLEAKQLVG
Experimental: as §3, with “It” for “Herbicidal inhibitors of HPPD are found here to have generally low values of koff (in the range less than 0.0003 s^−1, often less than 0.000001 s^−1). It”, “HPPD preparations suitable for use in the methods of the current invention are relatively unpurified, buffer-exchanged, supernatant fractions of spun crude lysates of E. coli strains engineered to express the HPPD enzyme of interest at a level of, typically, about 0.25-10% of the total soluble protein.” left out
Values of koff can suitably be calculated by computer fitting based upon is numerical integration of the exchange data along with information on the active-site concentration of HPPD and upon kon values obtained as described below. […] In any event, koff values are always here calculated from the rate of the major slow exchange reaction.
^14C mesotrione is of specific activity 1.12 GBq/mmol. […] Following this initial binding reaction, exchange reactions are initiated by addition of cold mesotrione to a final concentration of 60 μM and 200 μl aliquots removed at various times to rapid chromatography down a NAP5 gel filtration column equilibrated in 50 mM BTP at pH 7 containing 0.1 M KCl, separation into fractions containing protein-bound or free radiolabel and liquid scintillation counting.
Nevertheless, here, for practical purposes, koff values are always here calculated from the rate of the major slow exchange reaction.
Not all test inhibitors are readily available in a radiolabelled form.

SMILES	resistance of the transgenic plants compared with that to mesotrione [1]	fold less susceptible of mesotrione than of the named herbicide [2]	fold more susceptible of the herbicide than of mesotrione [3]	resistance of the transgenic plants compared with that to mesotrione [4]	ratio Kd4/Kd1, structure V to structure I [5]	Kd ([5]; without glycerol, Kd = koff/kon, read-out: Kd)	koff ([5]; − glycerol)	koff [6]	Kd ([7]; Kd, without glycerol, Kd = koff/kon)	koff ([7]; − glycerol)	Kd [8]	ratio Kd4/Kd1, structure V to structure I [8]	koff ([8]; − glycerol)
CS(=O)(=O)c1cc(C(F)(F)F)ccc1C(=O)c1cnoc1C1CC1 [isoxaflutole, 5-cyclopropyl-4-(2-methylsulphonyl-4-trifluoromethylbenzoyl)-isoxazole]	substantially less resistant	4-10 fold	1-2 fold	substantially less resistant	–	–	–	–	–	–	–	–	–
CC1(C)C(=O)C(C(=O)c2ccc(Cl)cc2[N+](=O)[O-])C(=O)C(C)(C)C1=O [Structure V, 2-[2-nitro-4-chlorobenzoyl]-4,4,6,6-tetramethylcyclohexane-1,3,5-trione]	–	–	–	–	> 4.3	> 1.5 nM	> 0.0002 s⁻¹	< 4e-06 s⁻¹	0.011 nM	4.2e-06 s⁻¹	0.004 nM	0.28	1.25e-06 s⁻¹
